Measured values: ChEMBL document CHEMBL1201862, “PubChem BioAssay data set” (2004)
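Dose response: 5 concentrations. Exposure: 48 h. Format: 96-well plates. Endpoint: linear interpolation; highest concentration if not reached. At the GI50, growth is halved.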 Activity calls are given as the source filed them. No stated cut-off is given here; in the data, active = GI50 up to about 1.1 µM and inactive = higher. Where a SMILES comes first, the peptide text is derived from it. The star is where a group is joined. Boc = CC(C)(C)OC(=O)*

What was measured:
Assay in all cases: NCI-60 cell line screen, 48 h
786-0 = tested on: 786-0
A498 = tested on: A498
A549 = tested on: A549
ACHN = tested on: ACHN
CAKI-1 = tested on: CAKI-1
CCRF-CEM = tested on: CCRF-CEM
COLO 205 = tested on: COLO 205
DLD-1 = tested on: DLD-1
DMS-114 = tested on: DMS-114
DMS-273 = tested on: DMS-273
EKVX = tested on: EKVX
HCC 2998 = tested on: HCC 2998
HCT-116 = tested on: HCT-116
HCT-15 = tested on: HCT-15
HL-60 = tested on: HL-60
HOP-18 = tested on: HOP-18
HOP-62 = tested on: HOP-62
HOP-92 = tested on: HOP-92
HT-29 = tested on: HT-29
IGROV-1 = tested on: IGROV-1
K562 = tested on: K562
KM-20L2 = tested on: KM-20L2
KM12 = tested on: KM12
LOX IMVI = tested on: LOX IMVI
LXFL 529 = tested on: LXFL 529
M14 = tested on: M14
M19-MEL = tested on: M19-MEL
MOLT-4 = tested on: MOLT-4
Malme-3M = tested on: Malme-3M
NCI-H226 = tested on: NCI-H226
NCI-H23 = tested on: NCI-H23
NCI-H460 = tested on: NCI-H460
NCI-H522 = tested on: NCI-H522
OVCAR-3 = tested on: OVCAR-3
OVCAR-4 = tested on: OVCAR-4
OVCAR-5 = tested on: OVCAR-5
OVCAR-8 = tested on: OVCAR-8
RPMI-8226 = tested on: RPMI-8226
RXF 393 = tested on: RXF 393
RXF 631 = tested on: RXF 631
SF-268 = tested on: SF-268
SF-295 = tested on: SF-295
SF-539 = tested on: SF-539
SK-MEL-28 = tested on: SK-MEL-28
SK-MEL-2 = tested on: SK-MEL-2
SK-MEL-5 = tested on: SK-MEL-5
SK-OV-3 = tested on: SK-OV-3
SN12C = tested on: SN12C
SNB-19 = tested on: SNB-19
SNB-75 = tested on: SNB-75
SNB-78 = tested on: SNB-78
SR = tested on: SR
SW-620 = tested on: SW-620
TK-10 = tested on: TK-10
U-251 = tested on: U-251
UACC-257 = tested on: UACC-257
UACC-62 = tested on: UACC-62
UO-31 = tested on: UO-31
XF498 = tested on: XF498

## CC(C)(C)OC(=O)NC(Cc1ccc(O)cc1)C(=O)N1CCCC1C(=O)O (stereo not drawn) (Boc-Tyr-Pro-OH; configuration not given here)
786-0
  GI50: > 100 µM (inactive)
A498
  GI50: > 100 µM (inactive)
A549
  GI50: > 100 µM (inactive)
ACHN
  GI50: > 100 µM (inactive)
CAKI-1
  GI50: > 100 µM (inactive)
CCRF-CEM
  GI50: > 100 µM (inactive)
COLO 205
  GI50: > 100 µM (inactive)
DLD-1
  GI50: > 100 µM (inactive)
DMS-114
  GI50: > 100 µM (inactive)
DMS-273
  GI50: > 100 µM (inactive)
EKVX
  GI50: > 100 µM (inactive)
HCC 2998
  GI50: > 100 µM (inactive)
HCT-116
  GI50: > 100 µM (inactive)
HCT-15
  GI50: > 100 µM
HL-60
  GI50: > 100 µM (inactive)
HOP-18
  GI50: > 100 µM (inactive)
HOP-62
  GI50: > 100 µM (inactive)
HOP-92
  GI50: > 100 µM (inactive)
HT-29
  GI50: > 100 µM (inactive)
IGROV-1
  GI50: > 100 µM (inactive)
K562
  GI50: > 100 µM (inactive)
KM-20L2
  GI50: > 100 µM (inactive)
KM12
  GI50: > 100 µM (inactive)
LOX IMVI
  GI50: > 100 µM (inactive)
LXFL 529
  GI50: > 100 µM (inactive)
M14
  GI50: > 100 µM (inactive)
M19-MEL
  GI50: > 100 µM (inactive)
MOLT-4
  GI50: > 100 µM (inactive)
Malme-3M
  GI50: > 100 µM (inactive)
NCI-H226
  GI50: > 100 µM (inactive)
NCI-H23
  GI50: > 100 µM (inactive)
NCI-H460
  GI50: > 100 µM (inactive)
NCI-H522
  GI50: > 100 µM (inactive)
OVCAR-3
  GI50: > 100 µM (inactive)
OVCAR-4
  GI50: > 100 µM (inactive)
OVCAR-5
  GI50: > 100 µM (inactive)
OVCAR-8
  GI50: > 100 µM (inactive)
RPMI-8226
  GI50: > 100 µM (inactive)
RXF 393
  GI50: > 100 µM (inactive)
RXF 631
  GI50: > 100 µM (inactive)
SF-268
  GI50: > 100 µM (inactive)
SF-295
  GI50: > 100 µM (inactive)
SF-539
  GI50: > 100 µM (inactive)
SK-MEL-28
  GI50: > 100 µM (inactive)
SK-MEL-2
  GI50: > 100 µM (inactive)
SK-MEL-5
  GI50: > 100 µM (inactive)
SK-OV-3
  GI50: > 100 µM (inactive)
SN12C
  GI50: > 100 µM (inactive)
SNB-19
  GI50: > 100 µM (inactive)
SNB-75
  GI50: > 100 µM (inactive)
SNB-78
  GI50: > 100 µM (inactive)
SR
  GI50: > 100 µM (inactive)
SW-620
  GI50: > 100 µM (inactive)
TK-10
  GI50: > 100 µM (inactive)
U-251
  GI50: > 100 µM (inactive)
UACC-257
  GI50: > 100 µM (inactive)
UACC-62
  GI50: > 100 µM (inactive)
UO-31
  GI50: > 100 µM (inactive)
XF498
  GI50: > 100 µM (inactive)

## Cn1c(N)nc(=O)c2c1N(C1OC(CO)C(O)C1O)CN2Cc1ccccc1 (stereo not given)
786-0
  GI50: > 100 µM (inactive)
A498
  GI50: > 100 µM (inactive)
A549
  GI50: > 100 µM (inactive)
ACHN
  GI50: > 100 µM (inactive)
CAKI-1
  GI50: > 100 µM (inactive)
COLO 205
  GI50: > 100 µM (inactive)
DLD-1
  GI50: > 100 µM (inactive)
DMS-114
  GI50: > 100 µM (inactive)
DMS-273
  GI50: > 100 µM (inactive)
EKVX
  GI50: > 100 µM (inactive)
HCC 2998
  GI50: > 100 µM (inactive)
HCT-116
  GI50: > 100 µM (inactive)
HCT-15
  GI50: > 100 µM
HL-60
  GI50: > 100 µM (inactive)
HOP-18
  GI50: > 100 µM (inactive)
HOP-62
  GI50: > 100 µM (inactive)
HOP-92
  GI50: > 100 µM (inactive)
HT-29
  GI50: > 100 µM (inactive)
IGROV-1
  GI50: > 100 µM (inactive)
K562
  GI50: > 100 µM (inactive)
KM-20L2
  GI50: > 100 µM (inactive)
KM12
  GI50: > 100 µM (inactive)
LXFL 529
  GI50: > 100 µM (inactive)
M14
  GI50: > 100 µM (inactive)
M19-MEL
  GI50: > 100 µM (inactive)
MOLT-4
  GI50: > 100 µM (inactive)
Malme-3M
  GI50: > 100 µM (inactive)
NCI-H226
  GI50: > 100 µM (inactive)
NCI-H23
  GI50: > 100 µM (inactive)
NCI-H460
  GI50: > 100 µM (inactive)
NCI-H522
  GI50: > 100 µM (inactive)
OVCAR-3
  GI50: > 100 µM (inactive)
OVCAR-4
  GI50: > 100 µM (inactive)
OVCAR-5
  GI50: > 100 µM (inactive)
OVCAR-8
  GI50: > 100 µM (inactive)
RPMI-8226
  GI50: > 100 µM (inactive)
RXF 393
  GI50: > 100 µM (inactive)
RXF 631
  GI50: > 100 µM (inactive)
SF-268
  GI50: > 100 µM (inactive)
SF-295
  GI50: > 100 µM (inactive)
SF-539
  GI50: > 100 µM (inactive)
SK-MEL-2
  GI50: > 100 µM (inactive)
SK-MEL-5
  GI50: > 100 µM (inactive)
SK-OV-3
  GI50: > 100 µM (inactive)
SN12C
  GI50: > 100 µM (inactive)
SNB-19
  GI50: > 100 µM (inactive)
SNB-75
  GI50: > 100 µM (inactive)
SNB-78
  GI50: > 100 µM (inactive)
SR
  GI50: > 100 µM (inactive)
SW-620
  GI50: > 100 µM (inactive)
TK-10
  GI50: > 100 µM (inactive)
U-251
  GI50: > 100 µM (inactive)
UACC-257
  GI50: > 100 µM (inactive)
UACC-62
  GI50: > 100 µM (inactive)
UO-31
  GI50: > 100 µM (inactive)
XF498
  GI50: > 100 µM (inactive)
